Patent US20210253520A1, “POLYMYXIN-BASED COMPOUNDS USEFUL AS ANTIBACTERIAL AGENTS” (UNIVERSITAT DE BARCELONA, priority 2018, published 2021)

How the values were obtained:
[1] = tested on: P. aeruginosa 36A; details: comparative examples, extracted from Scientific Reports 5:10558 or WO2017093210A1; cited from earlier work
[2] = tested on: K. pneumoniae MB674; details: comparative examples, extracted from Scientific Reports 5:10558 or WO2017093210A1; cited from earlier work
[3] = tested on: E. coli MB1410; details: comparative examples, extracted from Scientific Reports 5:10558 or WO2017093210A1; cited from earlier work
[4] = tested on: P. aeruginosa ATCC 27853; details: comparative examples, extracted from Scientific Reports 5:10558 or WO2017093210A1; cited from earlier work
[5] = tested on: K. pneumoniae MB674; type: cell-based; details: resistance profile of strain K. pneumoniae MB674, Table 3
Description: (§1) The antibacterial activity of the polymyxin lipopeptides was measured at ISGlobal following the microdilution test to determine the Minimal Inhibitory Concentrations (MIC) in sterile 96-well polypropilene plates. The concentration range was 32 a […] in Iso-Sensitest broth (Oxoid, ThermoFisher). The results were carried out in triplicate and the highest MIC is the one shown. Bacterial strains were grown in blood agar plates at 37° C. for 17 h. Fresh colonies were used to prepare a McFarland 0.5 solution that was finally added to the plates at 1 to 100 dilution
(§2) Samples of sensitive and multi-drug resistant bacteria were: E. coli ATCC 25922 E. coli MB1410; K. pneumoniae MB674; P. aeruginosa ATCC 27853; P. aeruginosa 36A.

[6] = tested on: E. coli ATCC 25922; details: comparative examples, extracted from Scientific Reports 5:10558 or WO2017093210A1; cited from earlier work
[7] = tested on: E. coli MB1410; test: microbe, parasite or virus in culture; type: cell-based; details: resistance profile of strain E. coli MB1410, Table 3
Description: as §1, §2

[8] = tested on: P. aeruginosa 36A; test: microbe, parasite or virus in culture; type: cell-based; details: resistance profile of strain P. aeruginosa 36A, Table 3
Description: as §1, §2

[9] = tested on: E. coli ATCC 25922; test: microbe, parasite or virus in culture; type: cell-based; details: resistance profile of strain E. coli ATCC 25922, Table 3
Description: as §1, §2

[10] = tested on: P. aeruginosa ATCC 27853; test: microbe, parasite or virus in culture; type: cell-based; details: resistance profile of strain P. aeruginosa ATCC 27853, Table 3
Description: as §1, §2

[11] = in vivo; cited from earlier work
[12] = tested on: Swiss CD-1 female mice; test: Nephrotoxicity study, histopathological scoring of kidney lesions; type: in vivo; parameters: key to Group Score (GS): mean of per-animal summed 0-4 lesion scores; higher = more nephrotoxic; key to Animal Score (AS), Partial AS: sum of 0-4 lesion parameter scores; higher = more nephrotoxic; details: for nephrotoxicity in mice, in words: nephrotoxicity tests carried out in mice, statement of the background
Description: Swiss CD-1 female mice weighing approximately 20-24 g (JANVIER Labs) were used, housed in an individually ventilated cage system under specific pathogen-free conditions, and water and food supplied ad libitum. This study plan and the conduct of the study were subjected to review by the Scientific Park of Barcelona Ethical Review Process with the current study procedure Code CEEA (AR) 9377-P2. Mice were administered at a dose of 12 mg/Kg every 2 hours for a total of 6 administrations (total dose 72 mg/Kg), unless otherwise stated. After 20 h, animals were anesthesized with isoflurane, kidneys extracted and prepared for histopathological evaluation, and finally animales were sacrificed. Kidney lesions (tubule dilation, necrosis, tubule casts, cell vacuolization, cell desquamation, and cell swelling) were quantified by microscopical observation (see for instance, Roberts, ACS Infect. Dis., 2015, 1, 568). Each one of these parameters was scored with values from 0 to 4 for each animal, as a global result of observations in kidney. Partial scores have been added up to obtain a final score for each animal (Animal Score, AS). The mean of animal score has been obtained to define the Group Score (GS). The higher the score, the more nephrotoxic a compound is. The nephrotoxicity score has been determined as according to the following table of approximated values: […]

[13] = cited from earlier work
[14] = Table 8, 12 mg/Kg every 2 hours × 6 sc, total 72 mg/Kg, 3 mice
[15] = Table 6, sum of mouse scores, 12 mg/Kg every 2 hours × 6, subcutaneous, total 72 mg/Kg

Substance: Colistin [Col.]
- antibacterial activity (MIC) [1]: 1 µg/mL
- antibacterial activity (MIC) [2]: 1 µg/mL
- antibacterial activity (MIC) [3]: 0.5 µg/mL
- antibacterial activity (MIC) [4]: 2 µg/mL
- MIC [5]: 0.2 µg/mL
- antibacterial activity (MIC) [6]: 0.5 µg/mL
- MIC [7]: 0.75 µg/mL
- MIC [8]: 1 µg/mL
- MIC [9]: 0.5 µg/mL
- MIC [10]: 2 µg/mL

Substance: Decanoyl-Dab-Thr-Dab-cyclo(S-S)[Cys-Dab-DPhe-Nle-Dab-Dab-DCys] [compound 2]
- toxicity in acute toxicity tests, in words [11]: did not showed toxicity
- AS, Partial AS [12, 14]: 4
- Cell vacuolization, Partial AS [12, 14]: 0
- Cloudy swelling, Partial AS [12, 14]: 3
- Group Score (GS) [12, 14]: 4
- Mice found dead [12, 14]: 2 dead
- Tubular casts, Partial AS [12, 14]: 0
- Tubular dilaion, Partial AS [12, 14]: 1
- Tubular necrosis, Partial AS [12, 14]: 0
- nephrotoxicity in mice, in words ([12]; listed as Decanoyl-Dab-Thr-Dab-ciclo(S—S)[Cys-Dab-DPhe-Nle-Dab-Dab-DCys)): showed toxicity
- nephrotoxicity in mice, in words ([12]; listed as Decanoyl-Dab-Thr-Dab-cyclo(S—S)[Cys-Dab-DPhe-Leu-Dab-Dab-DCys]): showed nephrotoxicity

Substance: Polymyxin B [PxB]
- antibacterial activity (MIC) [1]: 1 µg/mL
- antibacterial activity (MIC) [2]: 0.25 µg/mL
- antibacterial activity (MIC) [3]: 0.5 µg/mL
- antibacterial activity (MIC) [4]: 1 µg/mL
- kidney concentration relative to serum concentration ([13]; after 6 h): more than 30 time
- period of accumulation in kidneys ([13]; long after administration, when barely detectable in serum): at least 48 h
- antibacterial activity (MIC) [6]: 0.25 µg/mL
- Mice found dead ([12]; Table 6, 12 mg/Kg every 2 hours × 6, subcutaneous, total 72 mg/Kg): None
- Group Score (GS) ([12]; Table 6, mean of animal scores, 12 mg/Kg every 2 hours × 6, subcutaneous, total 72 mg/Kg): 3.4
- Cell desquamation, Partial AS [12, 15]: 0
- Cell vacuolization, Partial AS [12, 15]: 1
- Cloudy swelling, Partial AS [12, 15]: 21
- Tubular casts, Partial AS [12, 15]: 3
- Tubular dilation, Partial AS [12, 15]: 1
- Tubular necrosis, Partial AS [12, 15]: 1
- Animal Score (AS), Partial AS ([12]; Table 6, sum over all mice, 12 mg/Kg every 2 hours × 6, subcutaneous, total 72 mg/Kg): 27
- AS, Partial AS [12, 14]: 7
- Cell vacuolization, Partial AS [12, 14]: 0
- Cloudy swelling, Partial AS [12, 14]: 6
- Group Score (GS) [12, 14]: 2.3
- Mice found dead [12, 14]: none
- Tubular casts, Partial AS [12, 14]: 0
- Tubular dilaion, Partial AS [12, 14]: 1
- Tubular necrosis, Partial AS [12, 14]: 0
